Assay results published in patent publication US10065973B2, “Substituted aminothiazolopyrimidinedione for the treatment and prophylaxis of virus infection” (Hoffmann-La Roche Inc., priority 2016, dated 2018).

Molecular target: human TLR7 (Homo sapiens (Human), UniProt Q9NYK1)
Test: HEK293-Blue-hTLR-7 cells assay (SEAP reporter)
Format: cell-based
Conditions: 20 hours incubation
From the text: HEK293-Blue-hTLR-7 Cells Assay: A stable HEK293-Blue-hTLR-7 cell line was purchased from InvivoGen (Cat.#: hkb-htlr7, San Diego, Calif., USA). These cells were designed for studying the stimulation of human TLR7 by monitoring the activation of NF-κB. A SEAP (secreted embryonic alkaline phosphatase) reporter gene was placed under the control of the IFN-β minimal promoter fused to five NF-κB and AP-1-binding sites. The SEAP was induced by activating NF-κB and AP-1 via stimulating HEK-Blue hTLR7 cells with TLR7 ligands. Therefore the reporter expression was regulated by the NF-κB promoter upon stimulation of human TLR7. The cell culture supernatant SEAP reporter activity was determined using QUANTI-Blue™ kit (Cat.#: rep-qb1, Invivogen, San Diego, Ca, USA) at a wavelength of 640 nm, a detection medium that turns purple to blue in the presence of alkaline phosphatase. HEK293-Blue-hTLR7 cells were incubated at a density of 250,000˜450,000 cells/mL in a volume of 180 μL in a 96-well plate in Dulbecco's Modified Eagle's medium (DMEM) containing 4.5 g/l glucose, 50 U/ml penicillin, […] streptomycin, […] Normocin, 2 mM L-glutamine, 10% (v/v) heat-inactivated fetal bovine serum for 24 h. Then the HEK293-Blue-hTLR-7 cells were incubated with addition of 20 μL test compound in a serial dilution in the presence of final DMSO at 1% and perform incubation under 37° C. in a CO2 incubator for 20 hours. Then 20 μL of the supernatant from each well was incubated with 180 μL Quanti-blue substrate solution at 37° C. for 1-3 hours and the absorbance was read at 620˜655 nm using a spectrophotometer.

human TLR7, sequence (Q9NYK1 27-1049): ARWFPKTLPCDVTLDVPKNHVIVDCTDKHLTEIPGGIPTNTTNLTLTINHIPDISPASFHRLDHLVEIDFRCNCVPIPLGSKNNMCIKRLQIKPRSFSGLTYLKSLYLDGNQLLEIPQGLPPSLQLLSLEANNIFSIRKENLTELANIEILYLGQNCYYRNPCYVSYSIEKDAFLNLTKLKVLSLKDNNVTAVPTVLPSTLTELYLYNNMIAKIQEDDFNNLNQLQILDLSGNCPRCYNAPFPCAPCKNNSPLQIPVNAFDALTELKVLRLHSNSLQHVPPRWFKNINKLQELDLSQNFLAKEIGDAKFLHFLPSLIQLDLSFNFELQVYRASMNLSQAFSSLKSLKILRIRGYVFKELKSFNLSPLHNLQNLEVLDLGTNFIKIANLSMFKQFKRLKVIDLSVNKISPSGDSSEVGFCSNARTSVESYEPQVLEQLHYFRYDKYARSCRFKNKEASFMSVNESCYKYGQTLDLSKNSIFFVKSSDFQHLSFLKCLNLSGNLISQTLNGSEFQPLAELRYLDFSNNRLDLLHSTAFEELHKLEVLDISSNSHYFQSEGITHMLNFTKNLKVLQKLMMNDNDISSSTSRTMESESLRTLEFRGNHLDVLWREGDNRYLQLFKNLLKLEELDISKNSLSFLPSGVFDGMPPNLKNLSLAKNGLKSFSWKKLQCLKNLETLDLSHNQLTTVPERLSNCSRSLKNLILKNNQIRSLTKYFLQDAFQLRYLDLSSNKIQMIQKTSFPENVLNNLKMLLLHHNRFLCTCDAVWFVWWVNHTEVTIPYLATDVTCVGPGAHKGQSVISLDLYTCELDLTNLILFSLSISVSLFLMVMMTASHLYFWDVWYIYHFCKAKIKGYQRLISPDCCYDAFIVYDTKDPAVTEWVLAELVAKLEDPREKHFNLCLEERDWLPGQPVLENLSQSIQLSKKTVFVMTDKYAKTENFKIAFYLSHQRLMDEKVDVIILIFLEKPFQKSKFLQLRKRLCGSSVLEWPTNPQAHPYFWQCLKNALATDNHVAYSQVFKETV

EC50 [µM] | Structure (SMILES)
36 | CC[C@H](O)[C@@H]1C[C@@H]([C@@H](C)OC)[C@H](n2c(=O)sc3c(=O)[nH]c(N)nc32)O1 [Example 13, 5-Amino-3-[(2R,3S,5S)-5-[(1S)-1-hydroxypropyl]-3-[(1R)-1-methoxyethyl]tetrahydrofuran-2-yl]-6H-thiazolo[4,5-d]pyrimidine-2,7-dione]
35 | CC[C@H](O)[C@@H]1C[C@@H]([C@H](C)OC)[C@H](n2c(=O)sc3c(=O)[nH]c(N)nc32)O1 [Example 16, 5-Amino-3-[(2R,3S,5S)-5-[(1S)-1-hydroxypropyl]-3-[(1S)-1-methoxyethyl]tetrahydrofuran-2-yl]-6H-thiazolo[4,5-d]pyrimidine-2,7-dione]
2.7 | CC[C@H](O)[C@@H]1C[C@@H]([C@@H](C)O)[C@H](n2c(=O)sc3c(=O)[nH]c(N)nc32)O1 [Example 10-A, 5-Amino-3-[(2R,3S,5S)-3-[(1R)-1-hydroxyethyl]-5-[(1S)-1-hydroxypropyl]tetrahydrofuran-2-yl]-6H-thiazolo[4,5-d]pyrimidine-2,7-dione]
10.4 | CC[C@H](O)[C@@H]1C[C@@H]([C@H](O)c2ccccc2)[C@H](n2c(=O)sc3c(=O)[nH]c(N)nc32)O1 (single isomer, unassigned) [Example 18-A]
19 | CC[C@H](O)[C@@H]1C[C@@H](C(C)(C)OC(C)=O)[C@H](n2c(=O)sc3c(=O)[nH]c(N)nc32)O1 [Example 19, [1-[(2R,3S,5S)-2-(5-Amino-2,7-dioxo-6H-thiazolo[4,5-d]pyrimidin-3-yl)-5-[(1S)-1-hydroxypropyl]tetrahydrofuran-3-yl]-1-methyl-ethyl] acetate]
156 | Nc1nc2c(sc(=O)n2[C@@H]2O[C@H](CO)C[C@H]2C(O)C2CC2)c(=O)[nH]1 (single isomer, unassigned) [Example 2-A]
6.5 | CC[C@H](O)[C@@H]1C[C@@H]([C@@H](C)OC(=O)c2ccccc2)[C@H](n2c(=O)sc3c(=O)[nH]c(N)nc32)O1 [Example 12, [(1R)-1-[(2R,3S,5S)-2-(5-Amino-2,7-dioxo-6H-thiazolo[4,5-d]pyrimidin-3-yl)-5-[(1S)-1-hydroxypropyl]tetrahydrofuran-3-yl]ethyl] benzoate]
15 | CC[C@H](OC(C)=O)[C@@H]1C[C@@H]([C@@H](C)O)[C@H](n2c(=O)sc3c(=O)[nH]c(N)nc32)O1 [Example 17, [(1S)-1-[(2S,4S,5R)-5-(5-Amino-2,7-dioxo-6H-thiazolo[4,5-d]pyrimidin-3-yl)-4-[(1R)-1-hydroxyethyl]tetrahydrofuran-2-yl]propyl] acetate]
60 | CC[C@H](O)[C@@H]1C[C@@H]([C@@H](C)OCc2ccccc2)[C@H](n2c(=O)sc3c(=O)[nH]c(N)nc32)O1 [Example 14, 5-Amino-3-[(2R,3S,5S)-3-[(1R)-1-benzyloxyethyl]-5-[(1S)-1-hydroxypropyl]tetrahydrofuran-2-yl]-6H-thiazolo[4,5-d]pyrimidine-2,7-dione]
9.3 | CC[C@H](O)[C@@H]1C[C@@H]([C@H](C)OC(C)=O)[C@H](n2c(=O)sc3c(=O)[nH]c(N)nc32)O1 [Example 9-B, [(1S)-1-[(2R,3S,5S)-2-(5-amino-2,7-dioxo-6H-thiazolo[4,5-d]pyrimidin-3-yl)-5-[(1S)-1-hydroxypropyl]tetrahydrofuran-3-yl]ethyl] acetate]
23 | CC(C)(O)[C@@H]1C[C@@H](CO)O[C@H]1n1c(=O)sc2c(=O)[nH]c(N)nc21 [Example 8, 5-Amino-3-[(2R,3S,5S)-5-(hydroxymethyl)-3-(1-hydroxy-1-methyl-ethyl)tetrahydrofuran-2-yl]-6H-thiazolo[4,5-d]pyrimidine-2,7-dione]
205 | Nc1nc2c(sc(=O)n2[C@@H]2O[C@H](CO)C[C@H]2C(O)c2ccccc2)c(=O)[nH]1 (single isomer, unassigned) [Example 4-A]
9.7 | CC[C@H](O)[C@@H]1C[C@@H]([C@H](O)c2ccccc2)[C@H](n2c(=O)sc3c(=O)[nH]c(N)nc32)O1 (single isomer, unassigned) [Example 18-B]
225 | Nc1nc2c(sc(=O)n2[C@@H]2O[C@H](CO)C[C@H]2[C@H](O)c2ccccn2)c(=O)[nH]1 [Example 7, 5-Amino-3-[(2R,3S,5S)-5-(hydroxymethyl)-3-[(S)-hydroxy(2-pyridyl)methyl]tetrahydrofuran-2-yl]-6H-thiazolo[4,5-d]pyrimidine-2,7-dione]
68 | C=CCO[C@H](C)[C@@H]1C[C@@H]([C@@H](O)CC)O[C@H]1n1c(=O)sc2c(=O)[nH]c(N)nc21 [Example 15, 3-[(2R,3S,5S)-3-[(1R)-1-Allyloxyethyl]-5-[(1S)-1-hydroxypropyl]tetrahydrofuran-2-yl]-5-amino-6H-thiazolo[4,5-d]pyrimidine-2,7-dione]
111 | CCC(O)[C@@H]1C[C@@H](CO)O[C@H]1n1c(=O)sc2c(=O)[nH]c(N)nc21 (single isomer, unassigned) [Example 3-A]
39 | CC(O)[C@@H]1C[C@@H](CO)O[C@H]1n1c(=O)sc2c(=O)[nH]c(N)nc21 (single isomer, unassigned) [Example 1-B]
3 | CC[C@H](O)[C@@H]1C[C@@H](C(C)(C)O)[C@H](n2c(=O)sc3c(=O)[nH]c(N)nc32)O1 [Example 20, 5-Amino-3-[(2R,3S,5S)-3-(1-hydroxy-1-methyl-ethyl)-5-[(1S)-1-hydroxypropyl]tetrahydrofuran-2-yl]-6H-thiazolo[4,5-d]pyrimidine-2,7-dione]
26 | CCOC(=O)O[C@H](C)[C@@H]1C[C@@H]([C@@H](O)CC)O[C@H]1n1c(=O)sc2c(=O)[nH]c(N)nc21 [Example 11, [(1R)-1-[(2R,3S,5S)-2-(5-Amino-2,7-dioxo-6H-thiazolo[4,5-d]pyrimidin-3-yl)-5-[(1S)-1-hydroxypropyl]tetrahydrofuran-3-yl]ethyl] ethyl carbonate]
8.4 | CC[C@H](O)[C@@H]1C[C@@H]([C@@H](C)OC(C)=O)[C@H](n2c(=O)sc3c(=O)[nH]c(N)nc32)O1 [Example 9-A, [(1R)-1-[(2R,3S,5S)-2-(5-Amino-2,7-dioxo-6H-thiazolo[4,5-d]pyrimidin-3-yl)-5-[(1S)-1-hydroxypropyl]tetrahydrofuran-3-yl]ethyl] acetate]
79 | Nc1nc2c(sc(=O)n2[C@@H]2O[C@H](CO)C[C@H]2C(O)c2ccccc2Cl)c(=O)[nH]1 (single isomer, unassigned) [Example 6-A]
35 | CC[C@H](O)[C@@H]1C[C@@H]([C@H](C)O)[C@H](n2c(=O)sc3c(=O)[nH]c(N)nc32)O1 [Example 10-B, 5-amino-3-[(2R,3S,5S)-3-[(1S)-1-hydroxyethyl]-5-[(1S)-1-hydroxypropyl]tetrahydrofuran-2-yl]-6H-thiazolo[4,5-d]pyrimidine-2,7-dione]
111 | COc1ccccc1C(O)[C@@H]1C[C@@H](CO)O[C@H]1n1c(=O)sc2c(=O)[nH]c(N)nc21 (single isomer, unassigned) [Example 5-A]
